Reference: patent US20260200849A1, “CATIONIC LIPIDS AND PREPARATION METHOD THEREOF” (RiboX Therapeutics HK Limited, priority 2024, published 2026)
Several values for one entry are separate records, joined by “and”; a condition that tells them apart may be missing. Identical values can stand only once. Like-named read-outs stand apart in the source and are kept apart here.

Key:
Hep G2 cells [1] = experiment: In vitro toxicity: Hep G2 cell viability by CellTiter-Glo; type: cell-based; conditions: 72 hours post transfection, cell only = 100%
Experimental: 2E5 Hep G2 cells were transfected with 1 μg/mL RNA-LNPs. At 72 hours post transfection, cell viability (2-well repeat) was determined with the CellTiter-Glo® reagent kit, according to the kit protocol, measured by a luminometer. Cell only as control (100%).
The cell viability was calculated according to the following formula: […]

C57BL/6J mice = experiment: In vivo expression by ID, whole-body/injection site skin/lymph node luminescence; conditions: intradermal 0.15 mg/kg, 72 h post injection, female C57BL/6J mice N=3, Formulation 001, RNA 331
Experimental: 7-8 week old, female C57BL/6J mice (N=3) were injected with 0.15 mg*kg−1 of RNA-LNPs encoding for firefly-luciferase by intradermal injection. At 72-hours post injection, animals were intraperitoneally injected with 15 mg/mi of Luciferin substrate and whole-body/injection site skin/lymph node luminescence were determined by a bioluminescent in vivo imaging system (IVIS).

MCP-1 = experiment: In vivo tolerability by IM: serum MCP-1 by Luminex; conditions: IM 1.0 mg/kg, male C57BL/6J mice N=3, Formulation 001, RNA 331
Experimental: 6-8 week old, male C57BL/6J mice (N=3) were injected with 1.0 mg*kg−1 of RNA-LNPs encoding for firefly-luciferase by intramuscular injection. At 2- and 24-hours post injection, about 40 μL blood was harvested and immediately added to the procoagulant containing tube. Stand for 30 min at room temperature and then centrifuged at 2500 g×10 min to obtain serum. About 15 μL serum samples were aliquoted for cytokine (MCP-1 and IL-6) detection by Luminex (ProcartaPlex Mouse 2-plex, Thermo). PBS group as negative control.

[2] = RNA encapsulation efficacy (EE %) by Quant-IT Ribogreen kit; type: physicochemical; conditions: LNP
Experimental: (§1) The LNP size and polydispersity index (PDI), determined by dynamic light scattering (DLS), and zeta potential were measured by a Zetasizer machine (Malvern). RNA concentration and encapsulation efficacy (EE %) were analyzed by the Quant-IT Ribogreen kit by calculating the percentage encapsulation at 100%—(RNA-LNPs/RNA-LNPs with Triton X-100).

injection site skin = experiment: In vivo tolerability after intradermal injection: H&E staining of injection site skin; parameters: species or system C57BL/6J mice; key to Infiltration, mononuclear cells, dermis/subcutaneous, focal, Grade / Edema, subcutaneous, focal, Grade / Erosion, focal, Grade / Skin, Grade: 1==minimal; 2=mild; 3=moderate; 4=marked; 5=severe; N=Normal; NA=Not applicable; —=No data; conditions: intradermal 0.15 mg/kg, 72 h, Formulation 001, RNA 331; for Total score: sum of lesion grades of the group (N=3)
Experimental: 7-8 week old, female C57BL/6J mice (N=3) were injected with 0.15 mg*kg−1 of RNA-LNIPs encoding for firefly-luciferase by intradermal injection. At 72-hours post injection, injection site skin from each animal was collected in 10% formalin, for H&E staining. PBS group (N=2) as control. (Note: 1==minimal, 2=mild, 3=moderate, 4=marked, 5=severe; N=Normal; NA=Not applicable; —=No data)

Hep G2 cells [3] = experiment: In vitro expression: luciferase activity in Hep G2 cells transfected with RNA-LNPs; type: cell-based; conditions: 100 ng/mL RNA-LNPs, 72 hours post transfection
Experimental: 2E5 Hep G2 cells were transfected with 100 ng/mL of RNA-LNPs encoding for firefly-luciferase. At 72 hours post transfection, the cells were washed and lysed. The luciferase expression (2-well repeat) was determined in the cell lysates with the luciferase assay reagent kit (Promega), according to the kit protocol, luciferase activity was measured by a luminometer.

[4] = LNP size and polydispersity index (PDI) by dynamic light scattering (Zetasizer); type: physicochemical; conditions: for Size (nm): RNA No. 331
Experimental: as §1

Balb/c mice = experiment: In vivo expression by IV, 0.05 mg/kg luciferase RNA-LNPs, IVIS luminescence; conditions: female Balb/c mice, 0.05 mg*kg−1 intravenous; for Whole body at 24 h (p/s) (Mean) / Whole body at 72 h (p/s) (Mean): Formulation No. 010, RNA No. 331; for Whole body at 24 h (p/s) (Mean): 24 hours post injection; for Whole body at 72 h (p/s) (Mean): 72 hours post injection
Summary of the method: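 Female Balb/c mice (7-8 weeks, N=3) received 0.05 mg*kg−1 firefly-luciferase RNA-LNPs IV. Luciferin (15 mg/ml) was given IP at 24 and 72 h post-dose for IVIS whole-body luminescence. A second run imaged whole body, liver and spleen at 24 h only.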

[5] = In vivo lipid metabolism by IV: ionizable lipid concentration in plasma and liver by LC-MS/MS; parameters: species or system Sprague-Dawley (SD) rats; conditions: IV 0.15 mg/kg RNA-LNPs (hEPO), male SD rats, individual animals N=3; for concentration at 6 h / concentration at 1 h / concentration at 168 h: male, Sprague-Dawley, rat, iv, 0.15 mg/kg
Experimental: In Vivo Lipid Metabolism by IV 7-8 week old, male Sprague-Dawley (SD) rats (N=3) were injected with 0.15 mg*kg−1 of RNA-LNPs encoding for hEPO by intravenous injection. At 1-/6-/96-/168-hours post injection, about 100 μL blood will be harvested and immediately added to the EDTAK2 containing tube. Place on wet ice and then centrifuged at 3000 g×5 min to obtain plasma. 30 μL plasma will be aliquoted to the 1.5 mL tubes. At terminal 6-/168-hours post injection, the rats will be euthanized with CO2, hemorrhaged immediately with cardiac puncture, respectively. The livers were harvested, weighed and washed with saline, then put into 50 ml centrifuge tube placed in liquid nitrogen, then transferred into wet ice, and finally stored at −80° C. immediately. Both plasma and liver samples were used for ionizable lipid concentration quantification by LC-MS/MS. The lower limit of quantitation (LLOQ) is 1 ng/mL in plasma or 11 ng/g in liver. BQL—Below the lower limit of quantitation (LLOQ).

[6] = 1 μg/mL RNA-LNPs, Formulation 001, RNA 331
[7] = Formulation No. 010, RNA No. 331, 1 μg/mL RNA-LNPs
[8] = Formulation No. 001, RNA No. 019 (hEPO)
[9] = Formulation No. 001, RNA No. 331
[10] = Formulation No. 010, RNA No. 331
[11] = Formulation No. 010, RNA No. 331 (firefly-luciferase)
[12] = Formulation No. 010 (Ionizable lipid:DSPC:cholesterol:DSPE-PEG2000 = 38:30:30:2, N/P 6)
[13] = liver, 6 h post injection, read-out: Liver (ng/g), ionizable lipid concentration
[14] = Formulation No. 001, RNA No. 331, 24-hours post injection

Row | EE (%) [2, 8] [%] | EE (%) [2, 9] [%] | EE (%) [2, 10] [%] | PDI [4, 8] | Size [4, 8] [nm] | PDI [4, 9] | Size [4, 9] [nm] | SMILES | In vitro cell viability (%) (Mean) (Hep G2 cells [1]; [6]) | In vitro cell viability (%) (Mean) (Hep G2 cells [1]; [7]) | Injection site Skin (p/s) (C57BL/6J mice) | Lymph node (p/s) (C57BL/6J mice) | Whole body (p/s) (C57BL/6J mice) | MCP-1 at 2 h (MCP-1) [pg/mL] | MCP-1 at 24 h (MCP-1) [pg/mL] | Edema, subcutaneous, focal, Grade (injection site skin; per animal) | Erosion, focal, Grade (injection site skin; per animal) | Infiltration, mononuclear cells, dermis/subcutaneous, focal, Grade (injection site skin; per animal) | Total score (injection site skin) | In vitro Expression (Mean) (Hep G2 cells [3]; Formulation 001, RNA 331) | In vitro Expression (Mean) (Hep G2 cells [3]; [11]) | other results
1 | 94.25 | 94.58 | 96.68 | 0.04 | 64.53 | 0.04 | 61.34 | CCCCC/C=C\C/C=C\CCCCCCCC(=O)NC(COC(=O)NCCN1CCCCC1)C(=O)OCCCCCCCC(=O)OC(CCCCCCCC)CCCCCCCC (stereo not shown) [Lipid 549] | 79.09 | 88.89 | 3.41E+06 | 3.17E+06 | 4.38E+07 | 299 | 3980 | — and 1 (2×) | — | — and 1 (2×) | 4 | 7.02E+05 | 5.75E+05 | Skin, Grade (injection site skin; per animal): N; Size (nm) [4, 12]: 57.35 nm; PDI [4, 10]: 0.13; Whole body at 24 h (p/s) (Mean) (Balb/c mice): 2.75E+08 p/s; Whole body at 72 h (p/s) (Mean) (Balb/c mice): 7.85E+07 p/s
2 | 96.00 | 94.45 | 96.73 | 0.06 | 68.99 | 0.06 | 62.57 | CCCCCCCC/C=C\CCCCCCCC(=O)NC(COC(=O)NCCN1CCCCC1)C(=O)OCCCCCCCCOC(=O)C(CCCCCC)CCCCCCCC (stereo not shown) [Lipid 700] | 78.82 | 99.10 | 1.75E+07 | 1.57E+06 | 8.00E+07 | 281 | 3270 | 1 (2×) and 2 | — | 1 | 7 | 7.16E+05 | 3.61E+05 | Size (nm) [4, 12]: 55.29 nm; PDI [4, 10]: 0.07; Plasma (ng/mL), ionizable lipid concentration ([5]; 1 h post injection): 1272 ng/mL and 1635 ng/mL; Liver (ng/g), ionizable lipid concentration ([5]; 6 h post injection): 25720 ng/g and 25028 ng/g; Plasma (ng/mL), ionizable lipid concentration ([5]; 6 h post injection): 359 ng/mL and 641 ng/mL and 966 ng/mL; Plasma (ng/mL), ionizable lipid concentration ([5]; 96 h post injection): 5.84 ng/mL and 4.4 ng/mL and 28.6 ng/mL; Liver (ng/g), ionizable lipid concentration ([5]; 168 h post injection): 696.6 ng/g and 191.6 ng/g and 236.8 ng/g; Plasma (ng/mL), ionizable lipid concentration ([5]; 168 h post injection): 1.24 ng/mL and 9.51 ng/mL; concentration at 6 h [5, 13]: 26800 ng/g; concentration at 1 h ([5]; plasma, 1 h post injection): 1440 ng/mL; Whole body at 24 h (p/s) (Mean) (Balb/c mice): 3.40E+08 p/s; Whole body at 72 h (p/s) (Mean) (Balb/c mice): 1.34E+08 p/s
3 | 97.48 | 93.81 |  | 0.05 | 59.39 | 0.01 |  | CCCCCCCCC(CCCCCC)C(=O)OCCCCCCCCOC(=O)NC(COC(=O)NCCN1CCCCC1)C(=O)OCCCCCCCCOC(=O)C(CCCCCC)CCCCCCCC (stereo not shown) [Lipid 888] |  |  |  |  |  |  |  |  |  |  |  |  |  | In vitro cell viability (%) (Mean) (Hep G2 cells [1]; Formulation No. 001, RNA No. 331, 1 μg/mL RNA-LNPs): 89.73%; In vitro Expression (Mean) (Hep G2 cells [3]; Formulation No. 001, RNA No. 331 (firefly-luciferase)): 4.84E+05; Size (nm) ([4]; Formulation No. 001 (Ionizable lipid:DSPC:cholesterol:DMG-PEG2000 = 50:10:38.5:1.5, N/P 6)): 62.46 nm; Plasma (ng/mL), ionizable lipid concentration ([5]; 1 h post injection): 1635 ng/mL and 1440 ng/mL; Liver (ng/g), ionizable lipid concentration ([5]; 6 h post injection): 31120 ng/g and 47483 ng/g; Plasma (ng/mL), ionizable lipid concentration ([5]; 6 h post injection): 966 ng/mL and 975 ng/mL; Plasma (ng/mL), ionizable lipid concentration ([5]; 96 h post injection): 28.6 ng/mL (2×) and 12.9 ng/mL; Liver (ng/g), ionizable lipid concentration ([5]; 168 h post injection): 2277 ng/g and 2814 ng/g; Plasma (ng/mL), ionizable lipid concentration ([5]; 168 h post injection): 9.51 ng/mL and 8.26 ng/mL; concentration at 6 h [5, 13]: 48800 ng/g; concentration at 168 h ([5]; liver, 168 h post injection, read-out: Liver (ng/g), ionizable lipid concentration): 1640 ng/g; concentration at 1 h ([5]; plasma, 1 h post injection): 1640 ng/mL; concentration at 6 h ([5]; plasma, 6 h post injection, read-out: Plasma (ng/mL), ionizable lipid concentration): 966 ng/mL; concentration at 168 h ([5]; plasma, 168 h post injection, read-out: Plasma (ng/mL), ionizable lipid concentration): 9.51 ng/mL; Liver (p/s) (Mean) (Balb/c mice; [14]): 2.18E+08 p/s; Spleen (p/s) (Mean) (Balb/c mice; [14]): 7.61E+07 p/s; Whole body (p/s) (Mean) (Balb/c mice; [14]): 1.35E+09 p/s
